In patent publication US20240415819A1, “MACROCYCLIC COMPOUNDS AS PROTEASOME SUBUNIT BETA TYPE-5 INHIBITORS” (Lead Discovery Center GmbH, priority 2021, published 2024) one finds IC50 data, which are given here for nine compounds.

Test [1] relates to A549 (human lung carcinoma cell line). The test can be described thus: Glo assay of A549 cells (Table 3; ProteasomeGlo plating scheme). To be noted: Homo sapiens; A549 cells; read-out: PGLo A549. The format is cell-based. A digest of the protocol:
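Luminescent read-out of cellular chymotrypsin-like proteasome activity: cells exposed to compound 105 min at 37° C., 5% CO2, then given Suc-LLVY-Glo reagent, shaken 2-5 min and kept dark 10-15 min before reading. Values are IC50 [nM].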

The subject of test [2] is HT-29 cells. The test can be described thus: CellTiter-Glo luminescent cell viability assay with HT-29 cells (72h incubation). The conditions noted are these: Homo sapiens, HT-29, HT29 cells, read-out: CTG HT29. The format is cell-based, human. A digest of the protocol: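 Viability read as CellTiter-Glo luminescence after 72 h compound exposure, with 10 μM staurosporine and DMSO as control wells. Seeding 400 cells per well, compound added 24 h post-plating; IC50 from curve fitting.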

`Cc1ccc2cc1CNC(=O)[C@H](CCc1ccccc1)NC(=O)[C@@H](NC(=O)CCc1ccc(-c3ccccc3)cc1)CC(=O)N1CCCC(CCO2)C1` (stereo partly drawn) [Compound 176, 3-([1,1′-biphenyl]-4-yl)-N-((9S,12S)-5^4-methyl-8,11,14-trioxo-9-phenethyl-4-oxa-7,10-diaza-1(3,1)-piperidina-5(1,3)-benzenacyclotetradecaphane-12-yl)propanamide]: the IC50 in test [1] and in test [2] was less than 100 nM in each case.
On to `Cc1ccc2cc1CNC(=O)[C@H](CCc1ccccc1)NC(=O)[C@@H](NC(=O)CCc1ccccc1-c1ccccc1)CC(=O)N1CCCC(CCO2)C1` (stereo partly drawn) [Compound 177], for which the IC50 in test [1] and in test [2] was less than 100 nM in each case.
`Cc1ccc2cc1CNC(=O)[C@H](CCc1ccccc1)NC(=O)[C@@H](NC(=O)[C@@H](N)Cc1ccccc1)CC(=O)N1CCCC(CCO2)C1` (stereo partly drawn) [Compound 179, (2R)-2-amino-N-((9S,12S)-5^4-methyl-8,11,14-trioxo-9-phenethyl-4-oxa-7,10-diaza-1(3,1)-piperidina-5(1,3)-benzenacyclotetradecaphane-12-yl)-3-phenylpropanamide-]: the IC50 in test [1] and in test [2] was less than 100 nM in each case.
In the case of `C=CS(=O)(=O)N[C@H]1CC(=O)N2CCCC(CCOc3ccc(C)c(c3)CNC(=O)[C@H](CCc3ccccc3)NC1=O)C2` (stereo partly drawn) [Compound 180, N-((9S,12S)-5^4-methyl-8,11,14-trioxo-9-phenethyl-4-oxa-7,10-diaza-1(3,1)-piperidina-5(1,3)-benzenacyclotetradecaphane-12-yl)ethenesulfonamide], the IC50 in test [1] and in test [2] was less than 100 nM throughout.
On to `C=CC(=O)N[C@H]1CC(=O)N2CCCC(CCOc3ccc(C)c(c3)CNC(=O)[C@H](CCc3ccccc3)NC1=O)C2` (stereo partly drawn) [Compound 181, N-((9S,12S)-5^4-methyl-8,11,14-trioxo-9-phenethyl-4-oxa-7,10-diaza-1(3,1)-piperidina-5(1,3)-benzenacyclotetradecaphane-12-yl)acrylamide], for which the IC50 in test [1] and in test [2] was less than 100 nM in each case.
Regarding `Cc1ccc2cc1CNC(=O)[C@H](CCc1ccccc1)NC(=O)[C@@H](NC(=O)CCc1ccc3[nH]ccc3c1)CC(=O)N1CCCC(CCO2)C1` (stereo partly drawn) [Compound 182, 3-(1H-indol-5-yl)-N-((9S,12S)-5^4-methyl-8,11,14-trioxo-9-phenethyl-4-oxa-7,10-diaza-1(3,1)-piperidina-5(1,3)-benzenacyclotetradecaphane-12-yl)propanamide], the IC50 in test [1] and in test [2] was less than 100 nM throughout.
`CC(=O)N[C@H]1CCCC(=O)N2CCOC(CCOc3ccc(C)c(c3)CNC(=O)[C@H](CCc3ccccc3)NC1=O)C2` (stereo partly drawn) [Compound 186, N-((9S,12S)-5^4-methyl-8,11,16-trioxo-9-phenethyl-4-oxa-7,10-diaza-1(2,4)-morpholina-5(1,3)-benzenacyclohexadecaphane-12-yl)acetamide]: the IC50 in test [1] and in test [2] was 100 to 500 nM in each case.
With `CC(=O)N[C@H]1CCCC(=O)N2CC3CC(Oc4ccc(C)c(c4)CNC(=O)[C@H](CCc4ccccc4)NC1=O)C3C2` (stereo partly drawn) [Compound 191, N-((11R,15S,7S,10S)-3^4-methyl-6,9,14-trioxo-7-phenethyl-2-oxa-13,5,8-triaza-1(7,3)-bicyclo[3.2.0]heptana-3(1,3)-benzenacyclotetradecaphane-10-yl)acetamide], the IC50 in test [1] and in test [2] was 1000 to 5000 nM each time.
Take `Cc1ccc2cc1CNC(=O)[C@H](CCc1ccccc1)NC(=O)[C@@H](NC(=O)OCc1ccccc1)CCCC(=O)N1CCCC(CCO2)C1` (stereo partly drawn) [Compound 195, benzyl ((9S,12S)-5^4-methyl-8,11,16-trioxo-9-phenethyl-4-oxa-7,10-diaza-1(3,1)-piperidina-5(1,3)-benzenacyclohexadecaphane-12-yl)carbamate]: the IC50 in test [1] was 100 to 500 nM; in test [2], less than 100 nM.
